The results in this text go back to PMC5854716, “Synthesis, molecular docking, ctDNA interaction, DFT calculation and evaluation of antiproliferative and anti-Toxoplasma gondii activities of 2,4-diaminotriazine-thiazole derivatives” (Medicinal Chemistry Research, 2018).

The structures appear in SMILES notation.

For assay [1], the system named is biphenotypic B myelomonocytic leukemia MV4-11 cells. Put plainly: In vitro antiproliferative assay (MTT), MV4-11. The class given is cell-based, human. The settings on record: mean ± SD; for IC50 MV4-11: 72 h exposure; for IC50: Homo sapiens, MV4-11, 72 h exposure. Here is the method:
Biphenotypic B myelomonocytic leukemia MV4-11, human lung carcinoma A549, human breast carcinoma MCF-7, and normal mouse fibroblast BALB/3T3 cells were obtained from American Type Culture Collection (Rockville, Maryland, USA). All the cell lines are being maintained at the Institute of Immunology and Experimental Therapy, Wroclaw, Poland. MV4-11 cells were cultured in RPMI 1640 medium (Gibco, UK) with 2 mM L-glutamine adjusted to contain 1.0 mM sodium pyruvate, and 10% fetal bovine serum (FBS) (all from Sigma-Aldrich, Germany). A549 cells were cultured in RPMI 1640+ Opti-MEM (1:1) (both from Gibco, UK), MCF-7 cells in Eagle medium (IIET, Wroclaw, Poland), BALB/3T3 in Dulbecco medium (IIET, Poland) supplemented with 2 mM L-glutamine and 1.0 mM sodium pyruvate, 10% fetal bovine serum (all from Sigma-Aldrich, Germany). The MCF-7 cell culture was supplemented with 0.8 mg/l of insulin (Sigma-Aldrich, Germany). All culture media were supplemented with 100 units/ml penicillin, and 100 µg/ml streptomycin (both from Polfa Tarchomin S.A., Poland). All cell lines were grown at 37 °C with 5% CO2 humidified atmosphere (Łączkowski et al. [2014], [2016a]).
Prior to usage, the compounds were dissolved in DMSO and culture medium (1: 9) to the concentration of 1 mg/ml, and subsequently diluted in culture medium to reach the required concentrations (0.1, 1, 10, and 100 µg/ml) (Łączkowski et al. [2014], [2016a]).
Twenty-four hours prior to the addition of the tested compounds, the cells counted using Burker hemocytometer were plated in 96-well plates (Sarstedt, Germany) at a density of 1 × 10^4 cells per well. The assay was performed after 72 h of exposure to varying concentrations of the tested agents. The in vitro cytotoxic effect of all agents was examined using the SRB assay for adherent cells (A549, MCF-7, and BALB/3T3) or MTT assay for leukemia cells (MV4-11) as described previously. The results were calculated as an inhibitory concentration 50 (IC50)—the concentration of tested agent which inhibits proliferation of 50% of the cancer cell population. Each compound in each concentration was tested in triplicate in a single experiment, which was repeated 3–7 times (Rubinstein et al. [1990]; Bramson et al. [1995]).
Twenty microliter of MTT solution (MTT: 3-(4,5-dimethylthiazol-2-yl)-2,5-diphenyltetrazolium bromide, stock solution: 5 mg/ml) was added to each well and incubated for 4 h. After the incubation time was complete, 80 µl of the lysis mixture was added to each well (lysis mixture: 225 ml dimethylformamide, 67.5 g sodium dodecyl sulfate and 275 ml of distilled water). The optical densities of the samples were read after 24 h on a Synergy H4 (BioTek Instruments USA) photometer microtiter plate reader at 570 nm (Sidoryk et al. [2012]). All of chemicals were obtained from Sigma-Aldrich, Germany.

Assay [2] relates to human breast carcinoma MCF-7 cells. Put plainly: In vitro antiproliferative assay (SRB), MCF-7. The class given is cell-based. As to conditions: mean ± SD; for IC50 MCF-7: 72 h exposure; for IC50: Homo sapiens, MCF7, 72 h exposure. The protocol:
Biphenotypic B myelomonocytic leukemia MV4-11, human lung carcinoma A549, human breast carcinoma MCF-7, and normal mouse fibroblast BALB/3T3 cells were obtained from American Type Culture Collection (Rockville, Maryland, USA). All the cell lines are being maintained at the Institute of Immunology and Experimental Therapy, Wroclaw, Poland. MV4-11 cells were cultured in RPMI 1640 medium (Gibco, UK) with 2 mM L-glutamine adjusted to contain 1.0 mM sodium pyruvate, and 10% fetal bovine serum (FBS) (all from Sigma-Aldrich, Germany). A549 cells were cultured in RPMI 1640+ Opti-MEM (1:1) (both from Gibco, UK), MCF-7 cells in Eagle medium (IIET, Wroclaw, Poland), BALB/3T3 in Dulbecco medium (IIET, Poland) supplemented with 2 mM L-glutamine and 1.0 mM sodium pyruvate, 10% fetal bovine serum (all from Sigma-Aldrich, Germany). The MCF-7 cell culture was supplemented with 0.8 mg/l of insulin (Sigma-Aldrich, Germany). All culture media were supplemented with 100 units/ml penicillin, and 100 µg/ml streptomycin (both from Polfa Tarchomin S.A., Poland). All cell lines were grown at 37 °C with 5% CO2 humidified atmosphere (Łączkowski et al. [2014], [2016a]). Prior to usage, the compounds were dissolved in DMSO and culture medium (1: 9) to the concentration of 1 mg/ml, and subsequently diluted in culture medium to reach the required concentrations (0.1, 1, 10, and 100 µg/ml) (Łączkowski et al. [2014], [2016a]). Twenty-four hours prior to the addition of the tested compounds, the cells counted using Burker hemocytometer were plated in 96-well plates (Sarstedt, Germany) at a density of 1 × 10^4 cells per well. The assay was performed after 72 h of exposure to varying concentrations of the tested agents. The in vitro cytotoxic effect of all agents was examined using the SRB assay for adherent cells (A549, MCF-7, and BALB/3T3) or MTT assay for leukemia cells (MV4-11) as described previously. […] Each compound in each concentration was tested in triplicate in a single experiment, which was repeated 3–7 times (Rubinstein et al. [1990]; Bramson et al. [1995]). Cells were attached to the bottom of plastic wells by fixing them with cold 50% TCA (trichloroacetic acid, POCH, Gliwice, Poland) on top of the culture medium in each well. The plates were incubated at 4 °C for 1 h and then washed five times with tap water. The cellular material fixed with TCA was stained with 0.1% sulforhodamine B (SRB, Sigma-Aldrich, Germany) and dissolved in 1% acetic acid (POCH, Gliwice, Poland) for 30 min. Unbound dye was removed by rinsing (4×) in 1% acetic acid. The protein-bound dye was extracted with 10 mM unbuffered Tris base (Sigma-Aldrich, Germany) for determination of the optical density (λ = 540 nm) in a computer-interfaced, 96-well Synergy H4 (BioTek Instruments USA) photometer microtiter plate reader (Sidoryk et al. [2012]).

As a reminder, the IC50 is the concentration needed to halve the response being measured.

On to `CC(=O)Nc1ccc(-c2csc(N/N=C(\C)c3ccc(Nc4nc(N)nc(N)n4)cc3)n2)cc1` [Compound 4g, (E)-N^2-(4-(2-(2-(1-(4-(4,6-diamino-1,3,5-triazin-2-yloamino)phenyl)ethylidene)hydraziny)thiazol-4-yl)phenyl)-acetamide], for which, in assay [1], the “IC50 MV4-11” value is 2.76 ± 0.521 µg/mL. In addition, the “IC50 MCF-7” value in assay [2] was determined as 6.67 ± 2.958 µg/mL.

As for `C/C(=N\Nc1nc(-c2ccc(C)cc2)cs1)c1ccc(Nc2nc(N)nc(N)n2)cc1` [Compound 4c, (E)-N^2-(4-(1-(2-(4-(4-tolyl)-1,3-thiazol-2-yl)hydrazinylidene)ethyl)phenyl)-1,3,5-triazine-2,4,6-triamine], the IC50 worked out at 3.09 ± 0.726 µg/mL in assay [1] and 8.33 ± 2.83 µg/mL in assay [2].

Regarding `C/C(=N\Nc1nc(-c2ccc(NS(C)(=O)=O)cc2)cs1)c1ccc(Nc2nc(N)nc(N)n2)cc1` [Compound 4j, (E)-N-(4-(2-(2-(1-(4-(4,6-diamino-1,3,5-triazin-2-yloamino)phenyl)ethylidene)hydrazinyl)thiazol-4-yl)phenyl)-methanesulfonamide], in assay [1], the “IC50 MV4-11” value was 1.73 ± 0.091 µg/mL. In addition, the “IC50 MCF-7” value in assay [2] came out at 5.95 ± 2.165 µg/mL.

For the molecule `C/C(=N\Nc1nc(-c2ccc(I)cc2)cs1)c1ccc(Nc2nc(N)nc(N)n2)cc1` [Compound 4e, (E)-N^2-(4-(1-(2-(4-(4-iodophenyl)-1,3-thiazol-2-yl)hydrazinylidene)ethyl)phenyl)-1,3,5-triazine-2,4,6-triamine], the figures for the IC50 in assay [1] and in assay [2] were 1.13 ± 0.25 µg/mL and 8.41 ± 0.373 µg/mL, respectively.

On to `C/C(=N\Nc1nc(-c2ccc(Cl)c(Cl)c2)cs1)c1ccc(Nc2nc(N)nc(N)n2)cc1` [Compound 4i, (E)-N^2-(4-(1-(2-(4-(3,4-dichlorophenyl)-1,3-thiazol-2-yl)hydrazinylidene)ethyl)phenyl)-1,3,5-triazine-2,4,6-triamine], for which the IC50 in assay [1] came out at 1.37 ± 0.186 µg/mL; in assay [2], 3.69 ± 1.64 µg/mL.

`C/C(=N\Nc1nc(-c2ccc(Br)cc2)cs1)c1ccc(Nc2nc(N)nc(N)n2)cc1` [Compound 4d, (E)-N^2-(4-(1-(2-(4-(4-bromophenyl)-1,3-thiazol-2-yl)hydrazinylidene)ethyl)phenyl)-1,3,5-triazine-2,4,6-triamine]: the IC50 in assay [1] amounted to 2.14 ± 0.464 µg/mL; in assay [2], 3.18 ± 0.192 µg/mL.

On to `C/C(=N\Nc1nc(-c2ccc(F)cc2)cs1)c1ccc(Nc2nc(N)nc(N)n2)cc1` [Compound 4a, (E)-N^2-(4-(1-(2-(4-(4-fluorophenyl)-1,3-thiazol-2-yl)hydrazinylidene)ethyl)phenyl)-1,3,5-triazine-2,4,6-triamine], for which the IC50 was 3.21 ± 0.454 µg/mL in assay [1] and 4.28 ± 0.984 µg/mL in assay [2].

As for `C/C(=N\Nc1nc(-c2cc3ccccc3oc2=O)cs1)c1ccc(Nc2nc(N)nc(N)n2)cc1` [Compound 4f, (E)-3-(2-(2-(1-(4-(4,6-diamino-1,3,5-triazin-2-yloamino)phenyl)ethylidene)hydrazinyl)thiazol-4-yl)-2H-chromen-2-on], the “IC50 MV4-11” value in assay [1] came to 3.08 ± 0.851 µg/mL. Further, the “IC50 MCF-7” value in assay [2] is given as “─”.

As for `C/C(=N\Nc1nc(-c2ccc([N+](=O)[O-])cc2)cs1)c1ccc(Nc2nc(N)nc(N)n2)cc1` [Compound 4h, (E)-N^2-(4-(1-(2-(4-(4-nitrophenyl)-1,3-thiazol-2-yl)hydrazinylidene)ethyl)phenyl)-1,3,5-triazine-2,4,6-triamine], the values for the IC50 in assay [1] and in assay [2] were 3.01 ± 0.476 µg/mL and 8.72 ± 5.28 µg/mL, respectively.

Take `C/C(=N\Nc1nc(-c2ccccc2)cs1)c1ccc(Nc2nc(N)nc(N)n2)cc1` [Compound 4k, (E)-N^2-(4-(1-(2-(4-phenyl-1,3-thiazol-2-yl)hydrazinylidene)ethyl)phenyl)-1,3,5-triazine-2,4,6-triamine]: the IC50 in assay [1] came out at 2.3 ± 0.97 µg/mL; in assay [2], 5.73 ± 2.05 µg/mL.

As to `C/C(=N\Nc1nc(-c2ccc(Cl)cc2)cs1)c1ccc(Nc2nc(N)nc(N)n2)cc1` [Compound 4b, (E)-N^2-(4-(1-(2-(4-(4-chlorophenyl)-1,3-thiazol-2-yl)hydrazinylidene)ethyl)phenyl)-1,3,5-triazine-2,4,6-triamine], the IC50 was found to be 1.89 ± 0.45 µg/mL in assay [1] and 3.23 ± 0.401 µg/mL in assay [2].
